Results as given in PubChem BioAssay AID179 (DTP/NCI, 2004).
Where “and” joins values, the source holds several entries; their conditions need not be identical. Identical values can stand only once. Calls of active or inactive are those of the source.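 How the source made its calls: active means compounds giving half or more protection of infected cells from virus-caused growth loss, again on retest; inactive means the rest.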 Where a SMILES comes first, the peptide text is derived from it. The star is where a group is joined. OBn = c1ccc(CO*)cc1

Test system: CEM cells HIV-1 protection, formazan growth assay
Assay: NCI AIDS Antiviral Assay
Conditions: for IC50: measured here: growth of uninfected CEM cells
How it was run: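 CEM (human) cells, HIV-1 infected vs uninfected, 5-point dosing, formazan growth read-out. Retest threshold 50% protection.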

| Compound | EC50 | IC50 | outcome |
| --- | --- | --- | --- |
| CN(C(=O)C12C3C4C1C1C2C3C41C(O)C(C)(C)C)C(C)(C)C (stereo not drawn) | > 117 µM | > 117 µM |  |
| COc1cc2c(cc1O)C1Cc3cc(O)c(OC)cc3C(C2)N1C (stereo not drawn) | > 759 µM | 49 µM |  |
| C/C=C1\CN2CCc3c([nH]c4ccccc34)C2C=C1CCO (stereo not drawn) | > 170 µM | > 170 µM |  |
| COc1cccc(/C=N/[N-]C(=O)c2ccncc2)c1[O-].[Co+2].[OH3+] | > 20.9 µM | > 20.9 µM |  |
| CCCCN(CCCC)CC(C(=O)Nc1ccc([N+](=O)[O-])cc1[N+](=O)[O-])/C(C)=N\NC(=O)C[N+](C)(C)C (stereo not drawn) | > 46.8 µM | > 46.8 µM |  |
| COC(=O)c1cc(C(=CCC2OCCO2)c2cc(Cl)c(OC)c(C(=O)OC)c2)cc(Cl)c1OC | > 52.5 µM | 38.9 µM |  |
| O=C(/C=C/c1cccc(Br)c1)c1ccccc1 | > 13.2 µM | > 13.2 µM |  |
| CO/C(N)=C(\C#N)N=Cc1ccc2ccccc2c1 | > 200 µM | 37.2 µM |  |
| O=C(CCCn1cnc([N+](=O)[O-])n1)NCCn1ccnc1[N+](=O)[O-] | > 200 µM | > 200 µM |  |
| C=CCC12CC(COc3ccccc3C(N)=O)OC1=Nc1ccccc1NC2=O (stereo not drawn) | > 200 µM | > 200 µM |  |
| CC1=NN(C(=O)CC(=O)Nc2cccc(Cl)c2)C(=O)C1N=Nc1ccc(S(=O)(=O)c2ccc(N=NC3C(=O)N(C(=O)CC(=O)Nc4cccc(Cl)c4)N=C3C)cc2)cc1 (stereo not drawn) | > 100 µM | > 100 µM |  |
| Cc1ccc2c3c(nsc13)-c1ccccc1C2=O | > 53.7 µM | > 53.7 µM |  |
| CC(=O)n1nc(-c2ccc3ccccc3c2)nc1C | > 200 µM | 79.4 µM |  |
| CCOP(=S)(NN=C1CCCCC1)OCC | > 200 µM | 112 µM |  |
| COc1ccc(C2Oc3ccccc3C(=O)C2N)cc1 (stereo not drawn) | > 200 µM | 93.3 µM |  |
| Cc1ccc(N(C(=[As]c2ccccc2)C(C)(C)C)[Si](C)(C)C)cc1 (stereo not drawn) | > 18.2 µM | > 18.2 µM |  |
| CCOC(=O)c1cc2c3c(c1)C(=O)C(C)CN3CC(C)C2=O (stereo not drawn) |  |  | inactive |
| CN(C)S(=O)(=O)c1c(N)ncn1C | > 1230 µM | > 1230 µM |  |
| O=C(CCC(=O)c1ccsc1)c1ccsc1 | > 200 µM | > 200 µM |  |
| Nc1nn2cc3c(nc2c1N=Nc1ccc(Cl)cc1)CCCCC3 | > 151 µM | > 151 µM |  |
| O=C(NC1C=Nc2ccc(Cl)cc2NC1=O)c1ccc2ccccc2c1 (stereo not drawn) | > 200 µM | > 200 µM |  |
| C=CCN(CC=C)Cn1c(=S)sc2ccccc21 | > 200 µM | 141 µM |  |

| Compound | EC50 | IC50 | outcome |
| --- | --- | --- | --- |
| COC(C(=O)C(O)C(C)O)C1Cc2cc3cc(OC4CC(OC(C)=O)C(OC5CC(O)C(OC)C(C)O5)C(C)O4)cc(O)c3c(O)c2C(=O)C1OC1CC(OC2CC(OC3CC(C)(O)C(OC(=O)C(C)C)C(C)O3)C(O)C(C)O2)C(O)C(C)O1 (stereo not drawn) | > 2.09 µM | 0.0107 µM and 0.00389 µM |  |
| COC1=CC(=O)[C@@]2(OC)C(=O)c3c(cc4cc(O)c(C(O)OC)c(C)c4c3O)C(=O)[C@@]2(O)C1OC1OC(C)C(OC)C(OC)C1OC (stereo partly drawn) | > 93.3 µM | 64.6 µM |  |
| CC1NCC(O)C(O)C1O (stereo not drawn) | > 49 µM | > 49 µM |  |
| Cc1c(/C=N/NC(=S)Nc2ccc(Cl)cc2)c(=O)n(-c2ccccc2)n1C | > 200 µM | > 200 µM |  |
| CC(C)C1=CC23CCC4C(C)(C(=O)O)CCCC4(C)C2CC1C1C(=O)N(c2ccc(C(=O)O)cc2)C(=O)C13 (stereo not drawn) | > 45.7 µM | > 45.7 µM |  |
| CCN1CCC(O)(c2ccc(Oc3ccc(F)cc3)cc2)C(C(=O)c2ccc(Oc3ccc(F)cc3)cc2)C1 (stereo not drawn) | > 200 µM | 9.33 µM |  |
| CNC(=O)SC1=NS(=O)(=O)c2ccc(Cl)cc2N1 | 51.3 µM | 186 µM |  |
| O=c1[nH]cnc2c1ncn2C1SC(CO)C(O)C1O (stereo not drawn) | > 200 µM | 117 µM |  |
| Sc1nnc(-c2ccccc2Nc2ccccc2-c2nnc(S)n2-c2ccccc2)n1-c1ccccc1 | > 87.1 µM | 25.1 µM |  |
| CCCCCCCCCCCCC(=O)N1CCOCC1 | > 200 µM | 52.5 µM |  |
| Nc1ccn(C2CCC(CO)O2)c(=S)n1 (stereo not drawn) | > 200 µM | > 200 µM |  |
| c1ccc(-c2nc3sccn3n2)cc1 |  |  | inactive |
| COC(=O)c1ccc(CN2CCc3c([nH]c4ccccc34)C2CO)o1 (stereo not drawn) | > 148 µM | 52.5 µM |  |
| O=C(CN1CCN(Cc2ccccc2)CC1)c1ccc2[nH]c(=O)oc2c1 | > 200 µM | 158 µM |  |
| Nc1[nH][nH]c(=O)c1N=O | > 200 µM | > 200 µM |  |
| O=CC1=CCCN(CCc2c[nH]c3ccccc23)C1 | > 195 µM | 10.2 µM |  |
| CC(=O)Oc1ccc2c(c1)Cc1cc(N=[N+]([O-])c3ccc4c(c3)Cc3cc(OC(C)=O)ccc3-4)ccc1-2 | > 200 µM | > 200 µM |  |
| O=C1NC(=O)C(CN2C(=O)/C(=C/c3cccc(O)c3)SC2=S)C(=O)N1 | > 200 µM | 91.2 µM |  |
| CC1=CC[C@@H]2C(=O)C=CC=C[C@H]12.[C-]#[O+].[C-]#[O+].[C-]#[O+].[Fe] | > 316 µM | 178 µM |  |
| N#CC1(N2CCCC2)CCC2(CC1)OCCO2 |  |  | inactive |
| O=C(O)c1ccccc1-c1c2ccc(=Nc3ccccc3)cc-2oc2cc(Nc3ccc(S(=O)(=O)O)cc3)ccc12 | 14.1 µM | > 200 µM |  |
| C[C@]12CCCC(=O)C1C[C@H](C(=O)O)CC2 (stereo partly drawn) |  |  | inactive |

| Compound | EC50 | IC50 | outcome |
| --- | --- | --- | --- |
| COc1ccc2c(c1)CCC(c1ccccc1)=C2c1ccc(OCCN2CCCC2)cc1 | > 200 µM | 3.72 µM |  |
| CC1=CC2(C)C=C(C)C3(OC(c4ccccc4)=C(C#N)C3=N2)C1=O (stereo not drawn) | > 70.8 µM | 34.7 µM |  |
| Cn1c(=O)cc(N=Nc2ccc(Cl)c(Cl)c2)[nH]c1=O | > 200 µM | 16.2 µM |  |
| CN1C=CC(C(C(N)=O)c2ccccc2)c2ccccc21 (stereo not drawn) | > 200 µM | 178 µM |  |
| O=C1OC(c2ccccc2)(c2ccccc2)c2ccc3ccc(F)cc3c21 |  |  | inactive |
| O=C1NC(O)CCN1C1OC(CO)C(O)C1O (stereo not drawn) | > 200 µM | > 200 µM |  |
| CNC(=S)N/N=C(\C)c1cc(OC)ccc1O | > 200 µM | 14.5 µM |  |
| CC(C(=O)ON1C(=O)CCC1=O)c1ccc(C(=O)c2ccccc2)s1 (stereo not drawn) | > 200 µM | > 200 µM |  |
| CC(C)=CCN1CC(C)C(=O)Nc2cc(Cl)ccc21 (stereo not drawn) | > 132 µM | 28.2 µM |  |
| CCCCn1c(=O)[nH]c2c(N)ncnc21 | > 200 µM | > 200 µM |  |
| CCNc1cc2c3c(c1)CCCN3CCC2 | > 200 µM | 8.51 µM |  |
| COC(=O)C1(OC(=O)Sc2ccccc2)CCN(C)CC1 | > 200 µM | 26.3 µM |  |
| COc1ccccc1C1(c2ccccc2OC)OC(=O)c2ccccc21 | > 200 µM | 30.9 µM |  |
| O=C(O)C1CSCN1 (stereo not drawn) | > 468 µM | > 468 µM |  |
| NC(CS)=NCC1C2CC3CC(C2)CC1C3 (stereo not drawn) | > 200 µM | 33.1 µM |  |
| C=CCN(CCNS(=O)(=O)c1ccc(C)cc1)S(=O)(=O)c1ccc(C)cc1 | > 33.1 µM | > 33.1 µM |  |
| Oc1ccc(/C=C/c2ccc(O)c(O)c2)cc1O | > 200 µM | 14.5 µM |  |
| CC(=O)NC(C(=O)N1CCCC1C(=O)OCc1ccccc1)C(C)C (stereo not drawn) (Ac-Val-Pro-OBn; configuration not given here) | > 200 µM | 112 µM |  |
| CN(C)[C@@H]1C(=O)C(C(=O)NCNCCCC(=O)O)=C(O)[C@@]2(O)C(=O)C3=C(O)c4c(O)cccc4[C@@](C)(O)[C@H]3C[C@@H]12 | > 1.78 µM | > 1.78 µM |  |
| CN(C)CCc1ccc(Cl)cc1Cl | > 977 µM | 407 µM |  |
